Source: PubChem BioAssay (NCI)
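Tested at 5 concentrations; 48 h exposure; 96-well plates; endpoints linearly interpolated, else capped at highest concentration. Definition used: TGI = concentration required for complete inhibition of growth.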

Tests used:
Experiment in all cases: NCI-60 cell line screen, 48 h
[1] = tested on: MCF7 breast
[2] = tested on: NCI-H522 lung
[3] = tested on: DU-145 prostate
[4] = tested on: SK-OV-3 ovarian
[5] = tested on: MDA-MB-231 breast
[6] = tested on: UACC-62 melanoma
[7] = tested on: SNB-19 CNS
[8] = tested on: 786-0 renal
[9] = tested on: UO-31 renal
[10] = tested on: SK-MEL-28 melanoma
[11] = tested on: EKVX NSCLC
[12] = tested on: MOLT-4 leukemia
[13] = tested on: NCI-H226 lung
[14] = tested on: COLO 205 colon
[15] = tested on: T-47D breast
[16] = tested on: HT29 colon
[17] = tested on: SK-MEL-5 melanoma
[18] = tested on: UACC-257 melanoma
[19] = tested on: OVCAR-3 ovarian
[20] = tested on: HCC-2998 colon
[21] = tested on: ACHN renal
[22] = tested on: A549 NSCLC
[23] = tested on: MDA-MB-435
[24] = tested on: M14 melanoma
[25] = tested on: OVCAR-5 ovarian
[26] = tested on: NCI/ADR-RES ovarian
[27] = tested on: SW-620 colon
[28] = tested on: SF-295 CNS
[29] = tested on: BT-549 breast
[30] = tested on: U251 CNS
[31] = tested on: SF-268 CNS
[32] = tested on: OVCAR-4 ovarian
[33] = tested on: MALME-3M melanoma
[34] = tested on: OVCAR-8 ovarian
[35] = tested on: NCI-H460 lung
[36] = tested on: HCT-116 colon
[37] = tested on: NCI-H23 lung
[38] = tested on: HOP-92 NSCLC
[39] = tested on: HS 578T breast
[40] = tested on: SF-539 CNS
[41] = tested on: TK-10 renal
[42] = tested on: SK-MEL-2 melanoma
[43] = tested on: SN12C renal
[44] = tested on: HCT-15 colon
[45] = tested on: LOX IMVI melanoma
[46] = tested on: CAKI-1 renal
[47] = tested on: HOP-62 NSCLC
[48] = tested on: KM12 colon
[49] = tested on: K-562 leukemia
[50] = tested on: PC-3 prostate
[51] = tested on: CCRF-CEM leukemia
[52] = tested on: SR leukemia
[53] = tested on: MDA-N
[54] = tested on: SNB-75 CNS
[55] = tested on: IGROV1 ovarian
[56] = tested on: RXF 393 renal

COc1ccc2[nH]c3c(c2c1)CCc1ccccc1-3 showed a TGI [1] greater than 100 µM, a TGI [2] of 79.7 µM and a TGI [3] greater than 100 µM. It also gave a TGI [4] greater than 100 µM, a TGI [5] of 76.1 µM and a TGI [6] greater than 100 µM. The TGI [7] was greater than 100 µM, the TGI [8] was greater than 100 µM and the TGI [9] was greater than 100 µM. For the same molecule, the TGI [10] was greater than 100 µM, the TGI [11] was greater than 100 µM and the TGI [12] was greater than 100 µM. For the same molecule, the TGI [13] was greater than 100 µM, the TGI [14] was greater than 100 µM and the TGI [15] was greater than 100 µM. For the same molecule, the TGI [16] was greater than 100 µM, the TGI [17] was greater than 100 µM and the TGI [18] was greater than 100 µM. The TGI [19] was greater than 100 µM, the TGI [20] was greater than 100 µM and the TGI [21] was greater than 100 µM. For the same molecule, the TGI [22] was greater than 100 µM, the TGI [23] was greater than 100 µM and the TGI [24] was greater than 100 µM. For the same molecule, the TGI [25] was greater than 100 µM, the TGI [26] was greater than 100 µM and the TGI [27] was greater than 100 µM. It also gave a TGI [28] greater than 100 µM, a TGI [29] greater than 100 µM and a TGI [30] greater than 100 µM. It also gave a TGI [31] greater than 100 µM, a TGI [32] greater than 100 µM and a TGI [33] greater than 100 µM. The TGI [34] was greater than 100 µM, the TGI [35] was greater than 100 µM and the TGI [36] was greater than 100 µM. The TGI [37] was greater than 100 µM, the TGI [38] was greater than 100 µM and the TGI [39] was 37.4 µM. For the same molecule, the TGI [40] was 32.1 µM, the TGI [41] was greater than 100 µM and the TGI [42] was greater than 100 µM. It also gave a TGI [43] greater than 100 µM, a TGI [44] greater than 100 µM and a TGI [45] greater than 100 µM. It also gave a TGI [46] greater than 100 µM, a TGI [47] greater than 100 µM and a TGI [48] greater than 100 µM. It also gave a TGI [49] greater than 100 µM, a TGI [50] greater than 100 µM and a TGI [51] greater than 100 µM. It also gave a TGI [52] greater than 100 µM, a TGI [53] greater than 100 µM and a TGI [54] of 75.2 µM. The TGI [55] was greater than 100 µM.
CC(C)(C)OC(=O)N1CCC[C@H]1CSC[C@@H]1CCCN1C(=O)OC(C)(C)C showed a TGI [1] of 96.3 µM, a TGI [2] of 56 µM and a TGI [3] greater than 100 µM. The TGI [4] was greater than 100 µM, the TGI [5] was greater than 100 µM and the TGI [6] was 57.2 µM. The TGI [7] was greater than 100 µM, the TGI [8] was greater than 100 µM and the TGI [9] was 74.9 µM. It also gave a TGI [10] of 60 µM, a TGI [11] greater than 100 µM and a TGI [12] of 37.5 µM. The TGI [56] was 69 µM, the TGI [14] was 30.5 µM and the TGI [15] was 80.7 µM. The TGI [16] was 34.9 µM, the TGI [17] was 32.7 µM and the TGI [18] was 90.8 µM. The TGI [19] was 90.3 µM, the TGI [20] was greater than 100 µM and the TGI [21] was 82.2 µM. For the same molecule, the TGI [22] was 87.3 µM, the TGI [23] was 46.7 µM and the TGI [24] was 38.2 µM. For the same molecule, the TGI [25] was greater than 100 µM, the TGI [26] was 48.9 µM and the TGI [27] was 96.8 µM. It also gave a TGI [28] greater than 100 µM, a TGI [29] of 58.9 µM and a TGI [30] of 90.7 µM. The TGI [31] was greater than 100 µM, the TGI [32] was greater than 100 µM and the TGI [33] was 63.5 µM. It also gave a TGI [34] greater than 100 µM, a TGI [35] greater than 100 µM and a TGI [36] of 78.5 µM. It also gave a TGI [37] of 68.2 µM, a TGI [38] of 39.5 µM and a TGI [39] of 79.3 µM. For the same molecule, the TGI [41] was greater than 100 µM, the TGI [42] was 40.6 µM and the TGI [43] was greater than 100 µM. For the same molecule, the TGI [44] was 92.4 µM, the TGI [45] was 35.2 µM and the TGI [46] was greater than 100 µM. It also gave a TGI [47] greater than 100 µM, a TGI [48] of 48.2 µM and a TGI [49] of 84.7 µM. The TGI [50] was 82.1 µM, the TGI [51] was 44.8 µM and the TGI [53] was greater than 100 µM. It also gave a TGI [54] of 77.2 µM and a TGI [55] greater than 100 µM.
